{
  "source": "patent US20160038468A1",
  "about": "(priority 2013, published 2016)",
  "test_system": "bacterial vaginosis (BV) related organisms",
  "experiment": "Agar dilution MIC (CLSI), 411 vaginal BV related organisms overall",
  "assay_type": "cell-based",
  "protocol": "The method used was the reference method approved by the Clinical and Laboratory Standards Institute (CLSI). The CLSI is considered the gold standard for determining the lowest concentration of an antimicrobial agent that prevents growth of a microorganism in an agar dilution susceptibility test referred to as the minimal inhibitory concentration (MIC).\nA total of 411 unique microbial isolates recovered from the human vagina of US women from a period of time from 2009 to 2012 were tested for antimicrobial susceptibility by the agar dilution method. A total of 13 analytical runs were conducted in order to analyze all of the samples. See, Example 1.\nA total of 411 unique microbial isolates recovered from the human vagina from 2009-2012 were tested for antimicrobial susceptibility by the agar dilution method. This procedure followed the guidelines of the Clinical Laboratory Standard Institute reference agar dilution method (CLSI).\nThe MIC endpoint was read on the test plate. The MIC is that concentration at which a marked reduction occurs in the appearance of growth on the test plate as compared to the amount that of growth on the control plate. Examples of a marked change in growth include a change from confluent growth to a haze, less than 10 tiny colonies, or one to three normal sized colonies. The illustrated figures found in the CLSI manual should be used as a guide.",
  "data": [
    {"smiles": "CO[C@H]1/C=C/O[C@@]2(C)Oc3c(C)c(O)c4c(O)c(c5c(nc6cc(C)ccn65)c4c3C2=O)NC(=O)/C(C)=C\\C=C\\[C@H](C)[C@H](O)[C@@H](C)[C@@H](O)[C@@H](C)[C@H](OC(C)=O)[C@@H]1C", "note": "[Rifaximin]", "values": [
      {"measurement": "susceptibility of pathogenic strains in respect to clindamycin", "setting": "Prevotella, Anaerococcus, Finegoldia, Peptoniphilus and Atopobium strains", "result": "higher susceptibility"},
      {"measurement": "susceptibility of pathogenic strains in respect to metronidazole", "setting": "Prevotella, Anaerococcus, Peptoniphilus, Atopobium, Megasphera and Mobiluncus strains", "result": "higher susceptibility"},
      {"measurement": "efficacy against all pathogen vaginal bacteria judged from MICs, in comparison to metronidazole and clindamycin", "setting": "in particular when Prevotella strains are present", "result": "more efficacious"}
    ]}
  ]
}
